Values quoted from earlier work, collected in patent publication US20100323028A1, “METHOD AND COMPOSITION FOR TREATING PULMONARY HEMORRHAGE” (JBS UNITED, INC., priority 2007, published 2010).

Test system: horses
Conditions: alone or in combination not able to totally eliminate EIPH

## NS(=O)(=O)c1cc(C(=O)O)c(NCc2ccco2)cc1Cl [furosemide]
  Effect on EIPH: effective in reducing EIPH
